Patent US9028856B2, “Synergistic pesticide compositions” (priority 2008, dated 2015)

Legend:
Assay type in all cases: in vivo
Aedes aegypti mosquito = experiment: USDA Petri Dish Method, 3 min exposure to treated glazed tile
How it was run: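 USDA Petri Dish screen: groups of twenty female Aedes aegypti (4-6 days old) held 3 minutes on dried acetone-based treatments (with/without adjuvant), then transferred to untreated card. Replicated three or more times; knockdown followed over time, mortality recorded 24 hours post-exposure with sucrose-soaked cotton available.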

[1] = tested on: Culex quinquefasciatus mosquito; experiment: USDA Petri Dish Method, 3 min exposure to treated glazed tile (twenty 4-6 day old females); conditions: Table 50, fipronil/adjuvant in acetone, glazed tile, 3 min exposure
Description: MATERIALS AND METHODS: Solutions of resmethrin at 1 and 0.5% AI were prepared with and without adjuvant in acetone. […] USDA Petri Dish Method was used as initial screening protocol. Twenty, 4-6 day old female Culex quinquefasciatus mosquitoes were exposed to each treatment for 3 minutes and then moved to a clean untreated white paper index card. Treatments were replicated a minimum of three times. Mosquito knockdown was evaluated at 3 minute intervals for the first 15 minutes and then at 5 minute intervals for the remainder of an hour. A small cotton ball soaked in sucrose solution was added on the screen top of the petri-dish as a drinking source after the 2 hour evaluation. Mortality was evaluated at 24 hours after exposure.
(§1) Treatments were allowed to dry overnight. USDA Petri Dish Method was used as initial screening protocol. Twenty, 4-6 day old female Culex mosquitoes were exposed to each treatment for 3 minutes and then moved to a clean untreated white paper index card. Treatments were replicated a minimum of three times. Mosquito knockdown was evaluated at various intervals through 3 hours after exposure. A small cotton ball soaked in sucrose solution was added on the screen top of the petri-dish as a drinking source. Mortality was evaluated at 24 hours after exposure.
as §1, with “female Culex quinquefasciatus mosquitoes were” for “female Culex mosquitoes were”, “intervals through 2 hours after” for “intervals through 3 hours after”, “solution was then added on” for “solution was added on”
as §1, with “Culex quinquefasciatus” for “Culex”, “hourly intervals.” for “intervals through 3 hours after exposure.”, “source after 2 hours.” for “source.”

[2] = tested on: German cockroach (Blattella germanica); experiment: Contact efficacy against cockroaches on filter papers in glass dishes
Text: The objective of this study was to evaluate differences between deltamethrin and imidacloprid with and without adjuvant against cockroaches. The method for determining contact efficacy against cockroaches was the same as that in Example 107.

[3] = Table 56, Aedes aegypti, glazed tile, 3 min exposure
[4] = Table 48, fipronil/adjuvant in acetone, glazed tile, 3 min exposure
[5] = 0.00032% Deltamethrin in acetone
[6] = 0.0016% Deltamethrin in acetone

CC[S+]([O-])c1c(C#N)nn(-c2c(Cl)cc(C(F)(F)F)cc2Cl)c1N (centres unmarked) [Ethiprole (1%)]
Average % Knockdown & Mortality after 4 hr (Aedes aegypti mosquito; [3]): 17%
Average % Knockdown & Mortality after 6 hr (Aedes aegypti mosquito; [3]): 27%
Average % Knockdown & Mortality after 24 hr (Aedes aegypti mosquito; [3]): 46%
Average % Knockdown & Mortality after 2 hr (Aedes aegypti mosquito; Table 56, Aedes aegypti, glazed tile, 3 min exposure, adjuvant = Compound A 1% + Compound B 0.5%, 2 hr): 2%

CC[S+]([O-])c1c(C#N)nn(-c2c(Cl)cc(C(F)(F)F)cc2Cl)c1N (centres unmarked) [ethiprole]
mortality rate (peak / increased over time), FIG. 50 (Aedes aegypti mosquito; ethiprole 0.01% AI with or without adjuvant): 15-18%

N#Cc1nn(-c2c(Cl)cc(C(F)(F)F)cc2Cl)c(N)c1[S+]([O-])C(F)(F)F (centres unmarked) [Fipronil (.001%)]
Average % Knockdown & Mortality after 30 min [1]: 0%
Average % Knockdown & Mortality after 60 min [1]: 0%
Average % Knockdown & Mortality after 2 hr [1]: 0%
Average % Knockdown & Mortality after 3 hr [1]: 0%
Average % Knockdown & Mortality after 24 hr [1]: 2%
Average % Knockdown & Mortality after 15 min (Aedes aegypti mosquito; [4]): 0%
Average % Knockdown & Mortality after 30 min (Aedes aegypti mosquito; [4]): 0%
Average % Knockdown & Mortality after 60 min (Aedes aegypti mosquito; [4]): 0%
Average % Knockdown & Mortality after 4 hr (Aedes aegypti mosquito; [4]): 0%
Average % Knockdown & Mortality after 6 hr (Aedes aegypti mosquito; [4]): 3%
Average % Knockdown & Mortality after 24 hr (Aedes aegypti mosquito; [4]): 3%

N#Cc1nn(-c2c(Cl)cc(C(F)(F)F)cc2Cl)c(N)c1[S+]([O-])C(F)(F)F (centres unmarked) [Fipronil (.01%)]
Average % Knockdown & Mortality after 30 min [1]: 0%
Average % Knockdown & Mortality after 60 min [1]: 0%
Average % Knockdown & Mortality after 2 hr [1]: 0%
Average % Knockdown & Mortality after 3 hr [1]: 0%
Average % Knockdown & Mortality after 24 hr [1]: 48%
Average % Knockdown & Mortality after 15 min (Aedes aegypti mosquito; [4]): 5%
Average % Knockdown & Mortality after 30 min (Aedes aegypti mosquito; [4]): 6%
Average % Knockdown & Mortality after 60 min (Aedes aegypti mosquito; [4]): 19%
Average % Knockdown & Mortality after 4 hr (Aedes aegypti mosquito; [4]): 42%
Average % Knockdown & Mortality after 6 hr (Aedes aegypti mosquito; [4]): 56%
Average % Knockdown & Mortality after 24 hr (Aedes aegypti mosquito; [4]): 72%

O=[N+]([O-])NC1=NCCN1Cc1ccc(Cl)nc1 [imidacloprid]
% Mortality after 15′ ([2]; 0.04% Imidacloprid in acetone): 0%
% Mortality after 30′ ([2]; 0.04% Imidacloprid in acetone): 0%
% Mortality after 1 h ([2]; 0.04% Imidacloprid in acetone): 0%
% Mortality after 2 h ([2]; 0.04% Imidacloprid in acetone): 0%
% Mortality after 4 h ([2]; 0.04% Imidacloprid in acetone): 0%
% Mortality after 6 h ([2]; 0.04% Imidacloprid in acetone): 0%
% Mortality after 1 d ([2]; 0.04% Imidacloprid in acetone): 0%
% Mortality after 15′ ([2]; 0.2% Imidacloprid in acetone): 0%
% Mortality after 30′ ([2]; 0.2% Imidacloprid in acetone): 0%
% Mortality after 1 h ([2]; 0.2% Imidacloprid in acetone): 0%
% Mortality after 2 h ([2]; 0.2% Imidacloprid in acetone): 0%
% Mortality after 4 h ([2]; 0.2% Imidacloprid in acetone): 0%
% Mortality after 6 h ([2]; 0.2% Imidacloprid in acetone): 0%
% Mortality after 1 d ([2]; 0.2% Imidacloprid in acetone): 0%
efficacy with adjuvant compared with insecticide alone (summary in words) ([2]; filter papers in glass dishes): no mortality was observed, with or without adjuvant

CC1(C)[C@H](C(=O)O[C@H](C#N)c2cccc(Oc3ccccc3)c2)[C@@H]1C=C(Br)Br [deltamethrin]
% Mortality after 15′ [2, 5]: 0%
% Mortality after 30′ [2, 5]: 0%
% Mortality after 1 h [2, 5]: 0%
% Mortality after 2 h [2, 5]: 20%
% Mortality after 4 h [2, 5]: 20%
% Mortality after 6 h [2, 5]: 20%
% Mortality after 1 d [2, 5]: 100%
% Mortality after 15′ [2, 6]: 40%
% Mortality after 30′ [2, 6]: 60%
% Mortality after 1 h [2, 6]: 80%
% Mortality after 2 h [2, 6]: 100%
% Mortality after 4 h [2, 6]: 100%
% Mortality after 6 h [2, 6]: 100%
% Mortality after 1 d [2, 6]: 100%
